One experiment relates to wild-type soybean shoots. Kind of experiment: Soybean transformation, selection of shoots with HPPD inhibitor. Type of experiment: in vivo. The conditions noted are these: wild-type soybean shoots treated with the same amount of the respective HPPD inhibitor. The source says: (§1) Soybean transformation was achieved by using methods by best mode well known in the art, such as the one described using the Agrobacterium tumefaciens mediated transformation soybean half-seed explants using essentially the method described by Paz et al. (2006), Plant cell Rep. 25:206. Transformants were identified using various HPPD inhibitors tembotrione or isoxaflutole as selection marker. The appearance of green shoots can be observed, and documented as an indicator of tolerance to the respective herbicide.

The test system of experiment [1] is tolerant transgenic soybean shoots. The description is as above. Type of experiment: in vivo. The conditions noted are these: compared with untreated wild-type soybean shoots.
From the text: as §1

For the next experiment, the target named is PfHPPDEvo40 (Pseudomonas sp., UniProt P80064, A172V/A339E/A53E/D148E/D45N/E105D/E287Q/E300V/E334P/F143Y/G286D/G335S/H150N/H254A/H63N/I158V/I187A/I249V/K92N/L18F/N24G/N280D/S245T/S257K/S301E/T205S/V65I). Kind of experiment: Brown color assay of HPPD extracts on solid media containing an HPPD inhibitor. The conditions noted are these: 250 uM inhibitor in solid media.
Sequence of PfHPPDEvo40 (P80064 other isoform, or with tags, fused parts or gaps with the stated changes): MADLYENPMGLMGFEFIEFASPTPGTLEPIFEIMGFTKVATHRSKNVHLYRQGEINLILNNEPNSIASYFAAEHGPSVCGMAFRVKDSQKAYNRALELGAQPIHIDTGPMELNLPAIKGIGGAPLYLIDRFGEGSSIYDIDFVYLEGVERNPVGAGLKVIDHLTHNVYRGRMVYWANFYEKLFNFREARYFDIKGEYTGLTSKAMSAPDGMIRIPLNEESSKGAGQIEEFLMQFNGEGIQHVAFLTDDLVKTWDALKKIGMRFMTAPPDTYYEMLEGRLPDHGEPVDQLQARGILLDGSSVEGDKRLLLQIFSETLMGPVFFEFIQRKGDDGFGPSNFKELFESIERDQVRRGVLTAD

Experiment [2] has as its target PfHPPD Evo 40 SEQ ID No 27 (Pseudomonas sp., UniProt P80064, A172V/A339E/A53E/D148E/D45N/E105D/E287Q/E300V/E334P/F143Y/G286D/G335S/H150N/H254A/H63N/I158V/I187A/I249V/K92N/L18F/N24G/N280D/S245T/S257K/S301E/T205S/V65I). Kind of experiment: biochemical. More on the design: species or system Pseudomonas fluorescens.
Experiment [3] addresses PfHPPD Evo 41 SEQ ID No 29 (Pseudomonas sp., UniProt P80064, A172V/A339Q/A53E/D148E/D45N/E105D/E287Q/E300V/E334P/F143Y/G286D/G335W/H150N/H254A/H63N/I158V/I187A/I249V/K338A/K92N/L18F/N24G/N280D/S245T/S257K/S301E/T205S/V65I). Kind of experiment: biochemical. More on the design: species or system Pseudomonas fluorescens.
In another experiment the target is Avena HPPD SEQ ID No 2 (Avena sativa, UniProt A0ACD5V6K6). Put plainly: Determination of HPPD activity in presence of N-(1,3,4-Oxadiazol-2-yl)arylcarboxamides (pI50). The class given is biochemical. The conditions noted are these: negative log of molar concentration; inhibitor 0.1 to 100 μM; room temperature; 600 μM HPP. Here is the method: (§2) HPPD activity was measured at room temperature by adding appropriate amounts of HPPD to a solution of 200 mM Tris-HCl pH 7.6, 10 mM ascorbate, 20 μM FeSO4, 650 units of catalase, 8 μg HGA dioxygenase (HGA: homogentisate) and 600 μM HPP in a total volume of 1 ml. Initial reaction rates in the absence or presence of inhibitors were determined from the increase in absorbance at 318 nm due to the formation of maleylacetoacetate (ϵ318=11,900 M−1 cm−1). pI50-values (the negative log values of the concentration of inhibitor necessary to inhibit 50% of the enzyme activity in molar concentration were determined from dose-response plots of HPPD activity versus inhibitor concentrations tested (0.1 to 100 μM) using the 4 Parameter Logistic Model or Sigmoidal Dose-Response Model of the ID Business Solutions Ltd. XLfit software suite. Due to the UV absorption of the HPPD inhibitors tested, inhibitor concentrations >100 μM could not be tested. In cases, the symbol “>” is used this means that the value was far higher than the one indicated but could not be precisely calculated within in the range of concentration of inhibitor tested.
Sequence of Avena HPPD SEQ ID No 2 (A0ACD5V6K6 entry or part of it): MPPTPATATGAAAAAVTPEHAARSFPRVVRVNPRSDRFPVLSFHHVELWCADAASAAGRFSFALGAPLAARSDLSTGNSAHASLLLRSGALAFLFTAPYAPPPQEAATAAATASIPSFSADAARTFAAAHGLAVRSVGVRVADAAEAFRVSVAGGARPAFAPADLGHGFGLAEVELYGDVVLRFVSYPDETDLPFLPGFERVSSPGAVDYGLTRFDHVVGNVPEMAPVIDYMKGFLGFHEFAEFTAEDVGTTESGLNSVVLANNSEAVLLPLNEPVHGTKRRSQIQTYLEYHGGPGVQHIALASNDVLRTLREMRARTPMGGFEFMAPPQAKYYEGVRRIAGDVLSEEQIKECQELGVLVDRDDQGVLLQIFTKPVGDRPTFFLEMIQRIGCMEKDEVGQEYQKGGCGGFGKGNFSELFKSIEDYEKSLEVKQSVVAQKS
(§3) In the 1st column of Table 8, the chemical compound employed in the assay is named (according to the numbering of the Tables 1 to 7, above). In columns 2, 3, 4, and 5 the pI50-values of the corresponding chemical compounds against various HPPD enzymes (name and SEQ ID Nos are indicated, respectively) are given.

The next experiment addresses FMP 37 SEQ ID No 9 (Blepharisma japonicum, UniProt A8R3H6). The experiment is described as above. The class given is biochemical. The conditions noted are these: negative log of molar concentration; inhibitor 0.1 to 100 μM; room temperature; 600 μM HPP. Here is the method:
as §2, §3

Sequence of PfHPPD Evo 40 SEQ ID No 27 (P80064 1-354 with tags or gaps with the stated changes limits assumed): as the sequence (P80064 other isoform, or with tags, fused parts or gaps with the stated changes) above
Sequence of FMP 37 SEQ ID No 9 (A8R3H6 entry or part of it): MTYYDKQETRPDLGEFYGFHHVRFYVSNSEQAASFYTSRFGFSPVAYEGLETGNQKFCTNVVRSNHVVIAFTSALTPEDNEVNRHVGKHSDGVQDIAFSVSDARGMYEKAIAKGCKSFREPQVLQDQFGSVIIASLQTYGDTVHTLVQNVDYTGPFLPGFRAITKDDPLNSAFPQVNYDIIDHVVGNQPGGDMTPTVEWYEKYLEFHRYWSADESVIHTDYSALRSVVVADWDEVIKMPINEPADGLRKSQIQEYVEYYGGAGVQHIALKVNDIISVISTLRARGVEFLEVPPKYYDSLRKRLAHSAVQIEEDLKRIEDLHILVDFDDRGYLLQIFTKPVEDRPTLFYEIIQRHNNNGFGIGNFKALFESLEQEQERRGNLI
Sequence of PfHPPD Evo 41 SEQ ID No 29 (P80064 1-354 with tags or gaps with the stated changes limits assumed): as the sequence (P80064 other isoform, or with tags, fused parts or gaps with the stated changes) above, with S336W, K339A, E340Q counted along it

Take `CS(=O)(=O)c1ccc(C(=O)C2C(=O)CCCC2=O)c(Cl)c1COCC(F)(F)F` [tembotrione]: the “appearance of shoots under HPPD inhibitor selection” value in the experiment with wild-type soybean shoots was “entirely bleached”; in experiment [1], “normal greening”. Moreover, the “tolerance of variant PfHPPDEvo40 compared to PfHPPD336W (brown pigment formation, titration of extract)” value on PfHPPDEvo40 is reported as “improved tolerance”.
Take `Cc1nnc(NC(=O)c2ccc(C(F)(F)F)c([S+](C)[O-])c2Cl)o1` (centres unmarked) [Compound 2-360]: the IC50 in experiment [2] is 15.8 µM; in experiment [3] it was 20 µM; on Avena HPPD SEQ ID No 2, 3.98 µM; at FMP 37 SEQ ID No 9, 20 µM.
For the compound `CS(=O)(=O)c1cc(C(F)(F)F)ccc1C(=O)c1cnoc1C1CC1` [isoxaflutole], the entries for the “appearance of shoots under HPPD inhibitor selection” value (in the experiment with wild-type soybean shoots; in experiment [1]) were “entirely bleached” and “normal greening”, respectively.
As to `COCc1nnc(NC(=O)c2ccc(C(F)(F)F)c(S(C)(=O)=O)c2C)o1` [Compound 5-145], the IC50 in experiment [2] is less than 5.01 µM; in experiment [3] it was less than 5.01 µM; at Avena HPPD SEQ ID No 2, 3.16 µM; at FMP 37 SEQ ID No 9, 10 µM.
With `Cc1nnc(NC(=O)c2ccc(C(F)(F)F)c(S(C)(=O)=O)c2Cl)o1` [Compound 2-361], the IC50 is 5.01 µM in experiment [2], 7.94 µM in experiment [3], 1.58 µM on Avena HPPD SEQ ID No 2 and 12.6 µM at FMP 37 SEQ ID No 9.
The corresponding values for `Cc1nnc(NC(=O)c2ccc(C(F)(F)F)c(-n3cccn3)c2Cl)o1` [Compound 2-363] are 6.31 µM, 12.6 µM, 1.58 µM and 10 µM.
For `Cc1nnc(NC(=O)c2ccc(C(F)(F)F)nc2C)o1` [Compound 7-132], the IC50 was 200 µM in experiment [2], 251 µM in experiment [3], 15.8 µM at Avena HPPD SEQ ID No 2 and 7.94 µM on FMP 37 SEQ ID No 9.
With `CS(=O)(=O)c1cc(C(F)(F)F)ccc1C(=O)C(C#N)C(=O)C1CC1` (centres unmarked) [diketonitrile], the “tolerance of variant PfHPPDEvo40 compared to PfHPPD336W (brown pigment formation, titration of extract)” value at PfHPPDEvo40 is “improved tolerance”.
For `Cc1nnc(NC(=O)c2ccc(C(F)(F)F)c([S+](C)[O-])c2C)o1` (centres unmarked) [Compound 2-144], the half-maximal inhibitory concentration (IC50) was 6.31 µM in experiment [2], 10 µM in experiment [3], 3.98 µM on Avena HPPD SEQ ID No 2 and 12.6 µM on FMP 37 SEQ ID No 9.
Consider `Cc1c(C(=O)Nc2nnc(C3CC3)o2)ccc(C(F)(F)F)c1[S+](C)[O-]` (centres unmarked) [Compound 6-37], for which the IC50 in experiment [2] is 126 µM; in experiment [3] it was 158 µM; on Avena HPPD SEQ ID No 2, 39.8 µM; at FMP 37 SEQ ID No 9, 158 µM.
Take `Cc1nnc(NC(=O)c2ccc(C(F)(F)F)c(OCCF)c2Cl)o1` [Compound 2-364]: the IC50 in experiment [2] is 12.6 µM; in experiment [3], 31.6 µM; at Avena HPPD SEQ ID No 2 it was 1.58 µM; at FMP 37 SEQ ID No 9, 7.94 µM.

The record behind these values is US10508089B2, “Use of N-(1,3,4-Oxadiazol-2-yl)arylcarboxamides or their salts for controlling unwanted plants in areas of transgenic crop plants being tolerant to HPPD inhibitor herbicides” (BASF SE, priority 2014, dated 2019).
